Results published in ChEMBL document CHEMBL3351843, “Noncovalent fluorescent probes of human immuno- and constitutive proteasomes” (J Med Chem, 2014).
The source made the active and inactive calls. No cut-off for these calls is given here.

How the values were obtained:
[1] = Inhibition of PA activity of human constitutive 20S proteasome incubated for 15 mins before fluorogenic substrate addition
[2] = Inhibition of trypsin-like activity of human constitutive 20S proteasome incubated for 15 mins before fluorogenic substrate addition
Proteasome [3] = assay: Inhibition of PA activity of proteasome in HEK293 cells incubated for 1 hr by proteasome Glo cell-based chemiluminescent assay; conditions: Homo sapiens, HEK293, 1 h
Proteasome [4] = assay: Inhibition of trypsin-like activity of proteasome in HEK293 cells incubated for 1 hr by proteasome Glo cell-based chemiluminescent assay; conditions: Homo sapiens, HEK293, 1 h
[5] = Inhibition of chymotrypsin-like activity of human inducible 20S immunoproteasome incubated for 15 mins before fluorogenic substrate addition
HEK293 [6] = assay: Drug uptake in HEK293 cells at 5 uM incubated for 1 hr by flow cytometry; assay type: ADME, cell-based; conditions: human, hek293, 1 h
[7] = Inhibition of PA activity of human inducible 20S immunoproteasome incubated for 15 mins before fluorogenic substrate addition
[8] = Drug uptake in nucleus of HEK293 cells at 5 uM incubated for 1 hr by DAPI staining based confocal microscopy; assay type: ADME, cell-based; conditions: human, hek293, 1 h
[9] = Cytotoxicity against HEK293 cells assessed as cell survival at 5 uM incubated for 1 hr by XTT assay; assay type: cell-based; conditions: human, read-out: Survival
[10] = Inhibition of chymotrypsin-like activity of human constitutive 20S proteasome incubated for 15 mins before fluorogenic substrate addition
Proteasome [11] = assay: Inhibition of chymotrypsin-like activity of proteasome in HEK293 cells incubated for 1 hr by proteasome Glo cell-based chemiluminescent assay; conditions: Homo sapiens, HEK293, 1 h
[12] = Inhibition of trypsin-like activity of human inducible 20S immunoproteasome incubated for 15 mins before fluorogenic substrate addition
Proteasome [13] = assay: Reversible inhibition of trypsin-like activity of proteasome in HEK293 cells incubated for 1 hr by proteasome Glo cell-based chemiluminescent assay; conditions: Homo sapiens
Proteasome [14] = assay: Reversible inhibition of PA activity of proteasome in HEK293 cells incubated for 1 hr by proteasome Glo cell-based chemiluminescent assay; conditions: Homo sapiens
HEK293 [15] = assay: Reversible inhibition of chymotrypsin-like activity of proteasome in HEK293 cells incubated for 1 hr by proteasome Glo cell-based chemiluminescent assay; conditions: Homo sapiens

Compound	IC50 [1] [nM]	IC50 [2] [nM]	IC50 (Proteasome [3]) [nM]	IC50 (Proteasome [4]) [nM]	IC50 [5] [nM]	Drug uptake (HEK293 [6])	IC50 [7] [nM]	Drug uptake [8]	viability at 1 h, 5 µM [9] [%]	IC50 [10] [nM]	IC50 (Proteasome [11]) [nM]	IC50 [12] [nM]	inhibition (Proteasome [13])	inhibition (Proteasome [14])	inhibition (HEK293 [15])
C[C@H](NC(=O)[C@H](Cc1ccc(OCc2ccccc2)cc1)NC(=O)c1ccc(-c2c3ccc(=[N+](C)C)cc-3oc3cc(N(C)C)ccc23)c(C(=O)[O-])c1)C(=O)N[C@@H](C[C@]1(O)C(=O)Nc2ccccc21)C(=O)NCc1ccccc1	1080	1630	1120	2480	420	Active	830	Active	90.1	430	289	3530			
C[C@H](NC(=O)[C@H](Cc1ccc(OCc2ccccc2)cc1)NC(=O)CCCCCNC(=O)CCCCCNC(=O)CCCCCNC(=O)c1ccc(-c2c3ccc(=[N+](C)C)cc-3oc3cc(N(C)C)ccc23)c(C(=O)[O-])c1)C(=O)N[C@@H](C[C@]1(O)C(=O)Nc2ccccc21)C(=O)NCc1ccccc1	1370	1280	596	515	670		740	Active	100	490	125	1730			
C[C@H](NC(=O)[C@H](Cc1ccc(OCc2ccccc2)cc1)NC(=O)CCCCCNC(=O)c1ccc(-c2c3ccc(=[N+](C)C)cc-3oc3cc(N(C)C)ccc23)c(C(=O)[O-])c1)C(=O)N[C@@H](C[C@]1(O)C(=O)Nc2ccccc21)C(=O)NCc1ccccc1	990	1240	402	521	560		640	Active	78.2	480	65	1750	Active	Active	Active
COC(=O)CCCCCNC(=O)c1ccc(-c2c3ccc(=[N+](C)C)cc-3oc3cc(N(C)C)ccc23)c(C(=O)[O-])c1						Active			67.6						
C[C@H](NC(=O)[C@H](Cc1ccc(OCc2ccccc2)cc1)NC(=O)OC(C)(C)C)C(=O)N[C@@H](C[C@]1(O)C(=O)Nc2ccccc21)C(=O)NCc1ccccc1	11500	7100			2530		6160			3200		27700			
C[C@H](NC(=O)[C@H](Cc1ccc(OCc2ccccc2)cc1)NC(=O)c1ccc(-c2c3ccc(=O)cc-3oc3cc(O)ccc23)c(C(=O)O)c1)C(=O)N[C@@H](C[C@]1(O)C(=O)Nc2ccccc21)C(=O)NCc1ccccc1	9520	1930			1490		7060			2590		2430			
